Laboratory results taken from US20060122180A1, “Therapeutic treatment” (priority 2002, published 2006).
Bridge positions count the residues as written; N and C are the ends. Ends that are not written are not given here.

What was measured:
Type in all cases: cell-based, mouse
Conditions in all cases: MC-3T3.E1/J1 cells, serum starved, stimulated for 3 minutes
[1] = system: phospho-p44/42 mitogen activated proteine kinase (MAPK) (Thr 202/204); experiment: Western blot of p44/42 MAPK phosphorylation in growth-factor-stimulated MC3T3.E1/J1 osteoblastic cells
Description: (§1) The MC3T3. E1/J1 cell line was isolated from a parental cell line, MC3T3-E1 (available from Invitrogen), which had in turn been derived from newborn C57BL/6 mouse calvaria. The MC3T3 E1/J1 line is described as an osteoblastic line. Care is taken in culture not to use a medium with a pH greater than 7.5 or to allow the cells to become confluent, as this causes a de-differentiation to form a fibroblastic phenotype. This reversion to a fibroblastic phenotype is a common feature of osteoblastic cell cultures.
(§2) MC3T3.E1/J1 cells were routinely maintained in complete media (α-modified minimum essential medium eagle+10% foetal calf serum+1% glutamine+10% M1). MC3T3.E1/J1 cells were plated at 1.7×10^4 cells/well (24 well plates) in complete media and incubated at 37° C. in 5% CO2 for 48 hours. Cells were washed twice in phosphate buffered saline and re-incubated for approximately 17 hours in serum starvation media (α-modified minimum essential medium eagle+1% glutamine).
(§3) Cells were then stimulated with growth factor (ET-1 or EGF) for 3 minutes. All media was then removed and the cells lysed in 2× laemli buffer. Following electrophoresis and western blotting, membranes were probed with phospho-p44/42 mitogen activated proteine kinase (MAPK)^(Thr 202/204), phosphor-AKT^(Ser 473) and phospho-EGF Receptor^(tyr 1173) specific antibodies.

phosphor-AKT (Ser 473) = experiment: Western blot of AKT phosphorylation in growth-factor-stimulated MC3T3.E1/J1 osteoblastic cells
Description: as §1, §2, §3

[2] = system: phospho-EGF Receptor (tyr 1173); experiment: Western blot of EGF receptor phosphorylation in growth-factor-stimulated MC3T3.E1/J1 osteoblastic cells
Description: as §1, §2, §3

Row | Substance | p44/42 MAPK phosphorylation [1] | AKT phosphorylation (phosphor-AKT (Ser 473)) | EGFR tyr1173 phosphorylation [2]
1 | endothelin-1 (CSCSSLMDKECVYFCHLDIIW; disulfide 1-15, 3-11; ends not checked; UniProt P05305 53-73, looked up) [ET-1, endogenous 21 amino acid peptide, endothelin isoform, used as growth factor stimulus] | stimulates | – | –
2 | epidermal growth factor [EGF, growth factor used as stimulus] | stimulates | stimulates | stimulates
